Test results reported in patent publication US20080131511A1, “Pharmaceutical Composition for Treatment of Tear and Salivary Fluid Drying” (Astellas Pharma, Inc., priority 2004, published 2008).
Blank lines part the entries; values can stand above or below the compound they belong to.

Columns and labels:
Format in all cases: in vivo, mouse (male Balb/c)
[1] = system: sweat gland; experiment: Sweating (activated sweat glands, AUC) during subcutaneous continuous administration (osmotic pump); settings: for sweating: AUC of activated sweat glands
Description: (§1) Male Balb/c mice were used in the test.
The compound A was dissolved in physiological saline to a concentration of 0.625, 1.25, 2.5, 5.0, 10 or 20 mg/200 μl, and filled each pump (Alzet mini-osmotic pump 2001D, 8 μl/h, 1 day; DURECT Corporation) with about 200 μl portions It means, that is, each pump releases at a rate of 0.025, 0.05, 0.1, 0.2, 0.4 or 0.8 mg compound A/h, respectively. About 5 mm of dorsal epidermis of a mouse anesthetized with diethyl ether was incised, the osmotic pump already filled with the compound A was subcutaneously implanted, and then the skin was stitched. Secreted amounts of salivary and tear fluid and sweating were periodically measured from just before the implantation of pump until 32 hours after the administration. The ornithine decarboxylase activity was measured 10 hours after the implantation. […]
(§2) The footpad of right hind paw of a mouse anesthetized with diethyl ether was wiped with absorbent cotton, and then 20 μl of each of 5 mg/ml iodine-ethanol solution and 50 mg/ml starch-mineral oil suspension was applied thereto. The number of black spots on footpad was counted and used as the number of activated sweat glands. In the case of the subcutaneous bolus administration test, the number of activated sweat glands 10 minutes after the administration of compound A was measured. In the case of the subcutaneous continuous administration, area under the number of activated sweat glands-versus-time curve (AUC) was calculated.
(§3) All of the test results were expressed as fold increases of the reactions of the drug-administered group versus those of the vehicle-administered group, and comparison between the drug-administered groups and the vehicle-administered group was carried out using Dunnett's t-test. P<0.05 was considered significant. Results

[2] = system: ornithine decarboxylase (ODC) activity of parotid salivary gland; experiment: Ornithine decarboxylase activity of parotid salivary gland, subcutaneous continuous administration; settings: mice; for Glandular cell growth Salivary gland: ODC activity 10 hours after implantation
Description: as §1
(§4) The compound A was dissolved in physiological saline to a concentration of 0.625, 1.25, 2.5, 5.0, 10 or 20 mg/200 μl, and filled each pump (Alzet mini-osmotic pump 2001D, 8 μl/h, 1 day; DURECT Corporation) with about 200 μl portions It means, that is, each pump releases at a rate of 0.025, 0.05, 0.1, 0.2, 0.4 or 0.8 mg compound A/h, respectively. About 5 mm of dorsal epidermis of a mouse anesthetized with diethyl ether was incised, the osmotic pump already filled with the compound A was subcutaneously implanted, and then the skin was stitched. Secreted amounts of salivary and tear fluid and sweating were periodically measured from just before the implantation of pump until 32 hours after the administration. The ornithine decarboxylase activity was measured 10 hours after the implantation.
(§5) Pilocarpine was dissolved in physiological saline to a concentration of 0.039, 0.078, 0.16 or 0.31 mg/200 μl, or cevimeline to a concentration of 0.16, 0.31, 0.63 or 1.3 mg/200 μl, and filled the osmotic pump (Alzet mini-osmotic pump 2001 D, 8 μl/h, 1 day; DURECT Corporation) with about 200 μl portions. It means, that is, each pump releases at a rate of 0.00156, 0.00312, 0.0064 or 0.0124 mg/h (pilocarpine) or 0.0064, 0.0124, 0.0252 or 0.05 mg/h (cevimeline). About 5 mm of dorsal epidermis of a mouse anesthetized with diethyl ether was incised, the osmotic pump already filled with pilocarpine or cevimeline was subcutaneously implanted, and then the skin was stitched. Secreted amounts of salivary and tear fluid and sweating were periodically measured from just before the implantation of pump until 32 hours after the administration. The ornithine decarboxylase activity was measured 10 hours after the implantation.
(§6) Thus, it can be easily analogized that the ODC activity becomes a useful index of cell growth and function of the exocrine gland. Accordingly, the ability of each drug to activate glandular tissue was evaluated by measuring ODC activity of parotid salivary gland and extra-orbital lacrimal gland.
(§7) The amount of ^14CO2 formed from L-^14C-ornithine was used as the index of ODC activity.
(§8) A mouse anesthetized with diethyl ether was sacrificed by bleeding, and left and right parotid salivary glands and extra-orbital lacrimal glands were isolated. After removing the attached connective tissue and fat, the isolated glandular tissues homogenized in 1.5 ml of a homogenate buffer (25 mM Tris-HCl buffer (pH 7.4) containing 0.1 mM ethylenediaminetetraacetic acid, 0.4 mM pyridoxal phosphate, 5 mM dithiothreitol and 0.1% Brij 35®) using a Potter type homogenizer and then centrifuged at 4° C., 15,000 g for 30 minutes, and the supernatant was used as the enzyme fraction. Reaction of the enzyme and substrate was carried out by adding 100 μl of a substrate solution (the homogenate buffer containing 300 μM DL-ornithine and 5 μCi L-^14C-ornithine) to 900 μl of the enzyme liquid whose protein concentration had been adjusted to 2.5 mg/ml and incubating at 37° C. for 1 hour in a sealed tube, and the reaction was terminated by the addition of 100 μl of 2 M H2SO4. The ^14CO2 generated by the reaction was captured by 150 μl of 1 N NaOH soaked in a glass filter. Radioactivity of the ^14CO2 captured on the glass filter was detected using a liquid scintillation counter. The enzyme activity (pmol ^14CO2/mg protein/hour) was calculated from the measured results.
as §3

[3] = system: sweat gland; experiment: Sweating (number of activated sweat glands on footpad) after subcutaneous bolus administration
Description: as §1
(§9) The compound A was dissolved in physiological saline to a concentration of 1, 3, 10, 30 or 100 mg/5 ml, and 5 ml/kg of the drug solution was administered under the dorsal skin. Secreted amounts of salivary and tear fluid were measured just before the administration of compound A and 10, 20, 30, 40 and 50 minutes after the administration. The sweating action was measured 10 minutes after the administration. Also, the growth acceleration action was measured 6 hours after the administration.
as §9, with “Pilocarpine was dissolved” for “The compound A was dissolved”, “concentration of 0.03, 0.1, 0.3, 1, 3 or 10 mg/5 ml, or cevimeline to a concentration of 0.3, 1, 3,” for “concentration of 1, 3,”, “administration of pilocarpine or cevimeline and 10,” for “administration of compound A and 10,”
as §2, §3

[4] = system: ornithine decarboxylase (ODC) activity of extra-orbital lacrimal gland; experiment: Ornithine decarboxylase activity of extra-orbital lacrimal gland, subcutaneous continuous administration; settings: mice; for Glandular cell growth Lacrimal gland: ODC activity 10 hours after implantation
Description: as §1, §4, §5, §6, §7, §8, §3

[5] = male, Balb/c, mouse, in vivo, sc
[6] = s.c. osmotic pump 0.16 mg (0.0064 mg/h)
[7] = s.c. osmotic pump 0.31 mg (0.0124 mg/h)
[8] = mice, s.c. continuous administration
[9] = s.c. osmotic pump 1.25 mg (0.05 mg/h)
[10] = s.c. osmotic pump 2.5 mg (0.1 mg/h)
[11] = s.c. osmotic pump 5 mg (0.2 mg/h)
[12] = s.c. osmotic pump 10 mg (0.4 mg/h)
[13] = s.c. osmotic pump 0.63 mg (0.0252 mg/h)
[14] = s.c. osmotic pump 1.25 (0.05 mg/h)

dose at which sweating acceleration action was found [1, 5]: 0.31 mg | dose at which statistically significant sweating was found ([3]; mice, s.c. bolus): 1 mg/kg
SMILES: CC[C@@H]1C(=O)OC[C@@H]1Cc1cncn1C [pilocarpine]
Glandular cell growth Salivary gland [2, 6]: 0.42 ± 0.06 fold increase vs. vehicle group | Glandular cell growth Salivary gland [2, 7]: 1.1 ± 0.20 fold increase vs. vehicle group | sweating ([3]; mice, s.c. bolus 0.3 mg/kg, 10 minutes after administration): 1.1 ± 0.16 fold increase vs. the vehicle group | sweating ([3]; mice, s.c. bolus 1 mg/kg, 10 minutes after administration): 3.1 ± 0.32 fold increase vs. the vehicle group | sweating ([3]; mice, s.c. bolus 3 mg/kg, 10 minutes after administration (Table 3)): 4.2 ± 0.29 fold increase vs. the vehicle group | dose at which ODC activity increasing action of lacrimal gland cell was observed ([4]; s.c. continuous administration): 0.31 mg | Glandular cell growth Lacrimal gland [4, 6]: 1.4 ± 0.33 fold increase vs. vehicle group | Glandular cell growth Lacrimal gland [4, 7]: 2.0 ± 0.28 fold increase vs. vehicle group

SMILES: C=C1CC2(CCN(C)CC2)O[C@H]1C [compound A, (−)-(S)-2,8-dimethyl-3-methylene-1-oxa-8-azaspiro[4.5]decane]
dose at which sweating acceleration action was found [1, 8]: 20 mg | sweating acceleration dose relative to dose for secretion acceleration [1, 8]: 8 times | dose up to which sweating acceleration action was not found ([1]; mice, s.c. continuous administration, throughout the test period): 10 mg | sweating ([1]; mice, s.c. osmotic pump 0.63 mg (0.025 mg/h)): 0.85 ± 0.06 fold increase vs. the vehicle group | sweating ([1]; mice, s.c. osmotic pump 1.25 mg (0.05 mg/h)): 0.84 ± 0.06 fold increase vs. the vehicle group | sweating ([1]; mice, s.c. osmotic pump 2.5 mg (0.1 mg/h)): 0.89 ± 0.05 fold increase vs. the vehicle group | sweating ([1]; mice, s.c. osmotic pump 5 mg (0.2 mg/h)): 0.88 ± 0.05 fold increase vs. the vehicle group | sweating ([1]; mice, s.c. osmotic pump 10 mg (0.4 mg/h)): 0.90 ± 0.04 fold increase vs. the vehicle group | sweating ([1]; mice, s.c. osmotic pump 20 mg (0.8 mg/h)): 1.7 ± 0.07 fold increase vs. the vehicle group | Glandular cell growth Salivary gland [2, 9]: 1.56 ± 0.33 fold increase vs. the vehicle group | Glandular cell growth Salivary gland [2, 10]: 6.9 ± 2.3 fold increase vs. the vehicle group | Glandular cell growth Salivary gland [2, 11]: 9.6 ± 1.8 fold increase vs. the vehicle group | Glandular cell growth Salivary gland [2, 12]: 9.8 ± 2.6 fold increase vs. the vehicle group | dose at which a side effect was found ([3]; male, Balb/c, mouse, in vivo, 10 min): 30 mg/kg | dose at which statistically significant sweating was found ([3]; mice, s.c. bolus): 30 mg/kg | sweating dose relative to dose accelerating secretion of salivary and tear fluid ([3]; mice, s.c. bolus): 3 times | sweating ([3]; mice, s.c. bolus 3 mg/kg, 10 minutes after administration): 0.69 ± 0.19 fold increase vs. the vehicle group | sweating ([3]; mice, s.c. bolus 10 mg/kg, 10 minutes after administration): 1.3 ± 0.20 fold increase vs. the vehicle group | sweating ([3]; mice, s.c. bolus 30 mg/kg, 10 minutes after administration): 2.0 ± 0.19 fold increase vs. the vehicle group | sweating ([3]; mice, s.c. bolus 100 mg/kg, 10 minutes after administration): 2.2 ± 0.17 fold increase vs. the vehicle group | dose at which a side effect was not found ([3]; mouse, bolus administration): 10 mg/kg | Glandular cell growth Lacrimal gland [4, 9]: 3.3 ± 1.2 fold increase vs. the vehicle group | Glandular cell growth Lacrimal gland [4, 10]: 6.7 ± 0.90 fold increase vs. the vehicle group | Glandular cell growth Lacrimal gland [4, 11]: 9.2 ± 1.4 fold increase vs. the vehicle group | Glandular cell growth Lacrimal gland [4, 12]: 7.1 ± 1.2 fold increase vs. the vehicle group

dose at which sweating acceleration action was found [1, 5]: 1.25 mg | sweating acceleration dose relative to dose for secretion acceleration [1, 5]: 2 times | dose at which statistically significant sweating was found ([3]; mice, s.c. bolus): 10 mg/kg
SMILES: CC1OC2(CS1)CN1CCC2CC1 (stereo not shown) [cevimeline]
glandular cell ODC activity acceleration action ([2]; s.c. continuous administration): not confirmed even at 1.25 mg | Glandular cell growth Salivary gland [2, 13]: 0.87 ± 0.05 fold increase vs. the solvent group | Glandular cell growth Salivary gland [2, 14]: 0.45 ± 0.12 fold increase vs. the solvent group | sweating ([3]; mice, s.c. bolus 3 mg/kg, 10 minutes after administration (Table 4)): 1.5 ± 0.29 fold increase vs. the vehicle group | sweating ([3]; mice, s.c. bolus 10 mg/kg, 10 minutes after administration (Table 4)): 2.5 ± 0.40 fold increase vs. the vehicle group | sweating ([3]; mice, s.c. bolus 30 mg/kg, 10 minutes after administration (Table 4)): 3.1 ± 0.57 fold increase vs. the vehicle group | Glandular cell growth Lacrimal gland [4, 13]: 1.4 ± 0.28 fold increase vs. the solvent group | Glandular cell growth Lacrimal gland [4, 14]: 1.3 ± 0.70 fold increase vs. the solvent group
